The values below come from PubChem BioAssay (NCI).

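Five concentrations, 48 hours, 96-well plates. TGI: concentration producing complete growth inhibition.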

What all share (assay): inhibition of tumour cell growth, NCI panel, 48 h
For assay [1], the system named is RXF 393 renal.
Assay [2] has as its system DU-145 prostate.
For assay [3], the system named is RPMI-8226 leukemia.
Assay [4] concerns OVCAR-8 ovarian.
The subject of assay [5] is K-562 leukemia.
The test system of assay [6] is UACC-62 melanoma.
For assay [7], the system named is KM12 colon.
Assay [8] relates to HS 578T breast.
Assay [9] concerns MDA-MB-435.
For assay [10], the system named is MDA-N.

As to `COCC1OC(OC2C3=C(C(C)C)CCC3(C)/C=C3\C(CCC3(O)COC)C(C)C2O)C(O)C2OC3OC12OC3(C)C1CO1` (stereo not given), the TGI in assay [1], in assay [2], in [3], in assay [4], in [5] and in assay [6] was greater than 100 µM throughout. Also, the TGI in assay [7], in assay [8], in assay [9] and in assay [10] was greater than 100 µM in each case.
As for `O=C(NNC(=S)Nc1ccccc1)c1ccccc1Nc1ccccc1C(=O)NNC(=S)Nc1ccccc1`, the TGI was 45.4 µM in assay [1]; greater than 100 µM in assay [2]; greater than 100 µM in assay [3]; 52.2 µM in [4]; greater than 100 µM in [5]; 26.9 µM in [6]. In addition, the TGI is greater than 100 µM in [7], 74.9 µM in assay [8], greater than 100 µM in assay [9] and greater than 100 µM in assay [10].
Regarding `O=P(Oc1ccccc1)(Oc1ccccc1)Oc1c[nH]c2ccccc12`, the TGI in [1] was 29.2 µM; in assay [2], greater than 100 µM; in assay [3], 1.54 µM; in assay [4], 47.5 µM; in assay [5], 36.5 µM; in assay [6] it was 22 µM. The TGI in [7] was greater than 100 µM; in assay [8] it was 40.8 µM; in [9], 28.3 µM; in assay [10], 24.3 µM.
For the compound `CON(C)C(C#N)=C(C#N)C#N`, the TGI in assay [1], in assay [2], in assay [3], in assay [4], in assay [5] and in assay [6] was greater than 10 µM throughout. In addition, the TGI in assay [7], in assay [8], in assay [9] and in assay [10] was greater than 10 µM in each case.
Turning to `CC(=O)C(=[N+]=[N-])C(=O)OC(C)(C)C#N`, the TGI in assay [1], in assay [2], in [3], in [4], in assay [5] and in assay [6] was greater than 10 µM throughout. In addition, the TGI in assay [7], in assay [8], in assay [9] and in assay [10] was greater than 10 µM in each case.
With `COC(=O)C1(Cc2ccc3c(c2)CCC3)Cc2ccc3c(c2C1O)CCC3` (stereo not given), the TGI in assay [1] is 31 µM; in [2], 46.4 µM; in [3], 59.4 µM; in assay [4], 39.1 µM; in [5], greater than 100 µM; in assay [6], 32.9 µM. Also, the TGI was determined as 38.9 µM in assay [7], 42.1 µM in [8], 27.5 µM in [9] and 29.8 µM in assay [10].
On to `N#CCCN(CCC#N)c1ccc(C(N=Nc2ccccc2)=Nc2ccccc2)cc1`, for which the TGI in assay [1], in [2], in assay [3], in assay [4], in assay [5] and in assay [6] was greater than 100 µM throughout. Besides, the TGI in [7], in assay [8], in [9] and in assay [10] was greater than 100 µM throughout.
Turning to `COc1cc(CCCOC(=O)/C=C/c2ccc(O)c(O)c2)cc(O)c1O`, the TGI in assay [1] is greater than 100 µM; in assay [2], greater than 100 µM; in assay [3], greater than 100 µM; in assay [4], greater than 100 µM; in assay [5], greater than 100 µM; in assay [6], 85.1 µM. The TGI in [7] is greater than 100 µM; in [8], greater than 100 µM; in assay [9], greater than 100 µM; in assay [10], 53.7 µM.
For the compound `CN(C)CCNc1ccc2c(=O)n(CCN(C)C)c(=O)n3c4ccc([N+](=O)[O-])cc4c(=O)c1c23`, the TGI in [1] was found to be 0.996 µM; in [2] it was 6.54 µM; in assay [3] it was 0.605 µM; in [4], 3.99 µM; in [5], 1.94 µM; in assay [6], 3.17 µM. Further, the TGI came to 4.95 µM in assay [7], 3.09 µM in assay [8], 1.83 µM in [9] and 1.38 µM in assay [10].
With `CC1(c2nc3cc(Cl)c(Cl)cc3[nH]2)CCC(CO)C(C)(C)O1` (stereo not given), the TGI was greater than 100 µM in [1]; greater than 100 µM in assay [2]; greater than 100 µM in assay [3]; 61.4 µM in assay [4]; greater than 100 µM in assay [5]; 39.2 µM in assay [6]. The TGI in [7] was 38.6 µM; in assay [8], 53.9 µM; in assay [9], greater than 100 µM; in [10], greater than 100 µM.
For `CC(C)(C)N(Cc1ccc2c(c1)OCO2)C(=O)/C=C\S(=O)c1ccccc1` (stereo not given), the TGI in assay [1] is 8.22 µM; in assay [2], 10.2 µM; in [3] it was 9.54 µM; in [4], 6.44 µM; in [5] it was greater than 100 µM; in [6], 13.6 µM. In addition, the TGI in [7] came out at 14 µM; in assay [8] it was 6.36 µM; in assay [9] it was 9.74 µM; in assay [10] it was 12.7 µM.
`CC1=C2C(=O)[C@H]3[C@@H](CC=C4C[C@@H](O)CC[C@@]43C)[C@@H]2CC[C@]12O[C@@H]1C[C@H](C)CN[C@H]1[C@H]2C`: the TGI in assay [1] is greater than 53 µM; in assay [2], greater than 100 µM; in [3], greater than 100 µM; in [4], greater than 69.1 µM; in assay [5] it was greater than 100 µM; in [6], greater than 92.3 µM. Besides, the TGI in assay [7] was greater than 83.4 µM; in assay [8] it was greater than 100 µM; in assay [9], greater than 100 µM; in [10] it was greater than 100 µM.
Regarding `CC(C)(C)c1ccc(-c2nc3ccc([N+](=O)[O-])cc3c(=O)o2)cc1`, the TGI is 96.7 µM in assay [1]; greater than 100 µM in assay [2]; greater than 100 µM in [3]; 83.9 µM in assay [4]; 71.3 µM in [5]; 79.3 µM in assay [6]. The TGI in assay [7] was 69.9 µM; in [8], 80.8 µM; in assay [9], 77 µM; in [10], greater than 100 µM.
